The values below come from ChEMBL document CHEMBL1201862, “PubChem BioAssay data set” (2004).

Among the test systems are RXF 393; CAKI-1; CCRF-CEM; Malme-3M; K562; RPMI-8226; HOP-62; NCI-H460; SF-539; SNB-19; MOLT-4; HT-29; OVCAR-3; MCF7; T47D; OVCAR-5; A549; SK-MEL-5; NCI/ADR-RES.
Holding throughout (assay): NCI anticancer screen, dose series, 48 h

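How tested: cells in 96-well plates exposed to compound for 48 hours at five concentrations. Abbreviation: GI50, concentration required for 50% inhibition of growth.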 Activity calls are given as the source filed them. Cut-off read from the data, not from the text of the source: active = GI50 up to about 1.1 µM and inactive = higher. Where a SMILES comes first, the peptide text is derived from it. [ ]: non-standard residue; d: D form. Aoe = N[C@@H](CCCCCC(=O)[C@@H]1CO1)C(=O)O

As to `O=[N+]([O-])c1ncc(N(CCO)CCO)s1`, the GI50 was 16.7 µM (inactive) with RXF 393; > 100 µM (inactive) in the assay with CAKI-1; 22.8 µM (inactive) in the assay with CCRF-CEM; 18.2 µM (inactive) in the assay with Malme-3M; 20.8 µM (inactive) in the assay with K562; 19.5 µM (inactive) in the assay with RPMI-8226. In addition, the GI50 with HOP-62 was 42.9 µM (inactive); with NCI-H460, 61.2 µM (inactive); in the assay with SF-539, 14.4 µM (inactive); with SNB-19, > 100 µM (inactive); in the assay on MOLT-4 it was 36.6 µM (inactive); in the assay with HT-29, 49.7 µM (inactive). The GI50 is 65.6 µM (inactive) in the assay with OVCAR-3, 37 µM (inactive) with MCF7, 27.5 µM (inactive) in the assay with T47D and 78.5 µM (inactive) with OVCAR-5.
Turning to `CC(=O)OC1O[C@@H](C(C)(C)O)CC[C@@H]1[C@H]1CC[C@@]2(C)C3=C(CC[C@]12C)[C@@]1(C)C[C@@H](OC(=O)CC(C)(O)CC(=O)O)[C@H](OC(C)=O)C(C)(C)C1CC3` (some centres not stated), the GI50 in the assay with CAKI-1 is 15.8 µM (inactive); in the assay with A549, 17.2 µM (inactive); with CCRF-CEM, 20.8 µM (inactive); in the assay with Malme-3M, 17.4 µM (inactive); in the assay with K562, 31.3 µM (inactive); in the assay on RPMI-8226 it was 23.3 µM (inactive). Further, the GI50 was 18.8 µM (inactive) with HOP-62; 18 µM (inactive) in the assay with NCI-H460; 17.7 µM (inactive) in the assay with SNB-19; 19.2 µM (inactive) in the assay on SK-MEL-5; 19.4 µM (inactive) with MOLT-4; 20.1 µM (inactive) in the assay with HT-29. Further, the GI50 in the assay on OVCAR-3 is 18.6 µM (inactive); in the assay on MCF7, 18.3 µM (inactive); in the assay on T47D, 19.8 µM (inactive); in the assay with NCI/ADR-RES it was 18.1 µM (inactive); in the assay with OVCAR-5, 18.3 µM (inactive).
For `O=C1N[C@@H](Cc2ccccc2)C(=O)N2CCC[C@@H]2C(=O)N[C@@H](CCCCCC(=O)[C@@H]2CO2)C(=O)N[C@H]1Cc1ccccc1` [TRAPOXIN B] (cyclo(FF[dP][Aoe])), the GI50 in the assay on CAKI-1 was 0.00157 µM (active); in the assay on A549 it was 0.00265 µM (active); in the assay on CCRF-CEM, 0.0151 µM (active); with Malme-3M, < 0.000212 µM (active); with K562, < 0.000212 µM (active); in the assay on RPMI-8226 it was 0.000332 µM (active). The GI50 in the assay with HOP-62 is < 0.000212 µM (active); with NCI-H460, 0.011 µM (active); with SNB-19 it was 0.103 µM (active); with SK-MEL-5, 0.000497 µM (active); with MOLT-4, < 0.000212 µM (active); with HT-29 it was < 0.000212 µM (active). For the same compound, the GI50 with OVCAR-3 was 0.00122 µM (active); in the assay with MCF7, 0.000553 µM (active); with T47D, 0.0034 µM (active); in the assay on NCI/ADR-RES, 0.0475 µM (active); with OVCAR-5, 0.00197 µM (active).
With `CCOC(=O)c1c(-c2ccc(O)c(OC)c2)c(C#N)c(=S)n(C2OC(CO)C(O)C(O)C2O)c1-c1ccccc1` (configuration not stated), the GI50 was > 100 µM (inactive) in the assay with RXF 393; > 100 µM (inactive) in the assay on CAKI-1; > 100 µM (inactive) with A549; > 100 µM (inactive) in the assay on CCRF-CEM; > 100 µM (inactive) in the assay on K562; 72.3 µM (inactive) in the assay with RPMI-8226. In addition, the GI50 is > 100 µM (inactive) with HOP-62; > 100 µM (inactive) in the assay on NCI-H460; > 100 µM (inactive) in the assay on SNB-19; > 100 µM (inactive) in the assay with SK-MEL-5; 54.3 µM (inactive) in the assay on MOLT-4; > 100 µM (inactive) in the assay with HT-29. In addition, the GI50 with OVCAR-3, in the assay on MCF7, in the assay on NCI/ADR-RES and with OVCAR-5 was > 100 µM (inactive) each time.
For `CC(=O)OC1C(C)OC(OC(=O)C2CCC3C(C2)OC2(CC(OC(=O)/C=C/c4ccccc4)C(C)CO2)C32CO2)C(OC2OC(C)C(O)C(OC(C)=O)C2O)C1O` (configuration not stated), the GI50 in the assay on RXF 393 was < 0.0152 µM (active); in the assay with CAKI-1, 0.245 µM (active); in the assay with A549 it was < 0.01 µM (active); in the assay with CCRF-CEM, < 0.01 µM (active); in the assay with Malme-3M it was < 0.01 µM (active); in the assay with K562 it was < 0.01 µM (active). Besides, the GI50 is < 0.01 µM (active) in the assay on RPMI-8226; < 0.012 µM (active) in the assay with HOP-62; < 0.01 µM (active) with NCI-H460; < 0.01 µM (active) with SF-539; < 0.01 µM (active) with SNB-19; < 0.01 µM (active) in the assay on SK-MEL-5. Further, the GI50 in the assay on MOLT-4, in the assay with HT-29, in the assay with OVCAR-3, with MCF7, in the assay on T47D and in the assay with OVCAR-5 was < 0.01 µM (active) throughout.
Turning to `O=C(O)c1ccccc1C(=O)Nn1cnnc1`, the GI50 in the assay with RXF 393, in the assay with A549, with CCRF-CEM, in the assay on K562, with RPMI-8226 and in the assay on HOP-62 was > 100 µM (inactive) throughout. For the same compound, the GI50 in the assay with SF-539, in the assay on SNB-19, in the assay with SK-MEL-5, in the assay on MOLT-4, in the assay with HT-29 and with OVCAR-3 was > 100 µM (inactive) each time. The GI50 with MCF7, with NCI/ADR-RES and in the assay with OVCAR-5 was > 100 µM (inactive) throughout.
Turning to `CC(C)[C@]12O[C@H]1[C@@H]1O[C@]13[C@]1(O[C@H]1C[C@H]1C4=C(CC[C@@]13C)C(=O)OC4)[C@@H]2O` [TRIPTOLIDE], the GI50 was 0.011 µM (active) in the assay with CCRF-CEM; 0.0112 µM (active) with Malme-3M; 0.017 µM (active) with K562; 0.00701 µM (active) with HOP-62; 0.00527 µM (active) in the assay on NCI-H460; 0.00745 µM (active) with SF-539. Further, the GI50 was 0.104 µM (active) in the assay on SNB-19; 0.00697 µM (active) in the assay with SK-MEL-5; 0.00764 µM (active) in the assay on MOLT-4; 0.0083 µM (active) with HT-29; 0.00586 µM (active) in the assay with OVCAR-3; 0.00427 µM (active) in the assay on MCF7. Moreover, the GI50 in the assay on NCI/ADR-RES was 0.0261 µM (active).
As to `CCOC(=O)Cn1c2ccc(Br)cc2c2nc3ccccc3nc21`, the GI50 with RXF 393, in the assay on CAKI-1, with A549, in the assay on CCRF-CEM, in the assay on K562 and in the assay with RPMI-8226 was > 100 µM (inactive) each time. Moreover, the GI50 in the assay with HOP-62, in the assay with SNB-19, in the assay with SK-MEL-5, in the assay with MOLT-4, with HT-29 and in the assay on OVCAR-3 was > 100 µM (inactive) throughout. The GI50 in the assay with T47D, with NCI/ADR-RES and in the assay on OVCAR-5 was > 100 µM (inactive) throughout.
For the compound `O=C(Cc1ccccc1)Nn1c(-c2ccccc2)nc2ccccc2c1=O`, the GI50 with RXF 393, in the assay with A549, with CCRF-CEM, with Malme-3M, in the assay on K562 and with RPMI-8226 was > 100 µM (inactive) in each case. The GI50 in the assay on HOP-62 was > 100 µM (inactive); in the assay with NCI-H460, > 100 µM (inactive); in the assay on SF-539 it was > 100 µM (inactive); in the assay on SNB-19 it was > 100 µM (inactive); in the assay on SK-MEL-5, 2.38 µM (inactive); in the assay on MOLT-4 it was > 100 µM (inactive). The GI50 with HT-29, in the assay with OVCAR-3, in the assay with MCF7, in the assay with T47D and in the assay with OVCAR-5 was > 100 µM (inactive) throughout.
With `COC(=O)c1c(-c2ccc(Cl)cc2)cc2c3ccccc3n(C)c2c1C(=O)OC`, the GI50 in the assay on CAKI-1 is > 100 µM (inactive); in the assay on A549, > 100 µM (inactive); in the assay on CCRF-CEM, 7.85 µM (inactive); in the assay on Malme-3M it was > 100 µM (inactive); with K562, 22.8 µM (inactive); with HOP-62, > 100 µM (inactive). Also, the GI50 in the assay on NCI-H460 was 49.8 µM (inactive); in the assay with SF-539, > 100 µM (inactive); with SNB-19 it was > 100 µM (inactive); in the assay on SK-MEL-5, > 100 µM (inactive); with MOLT-4, 23.1 µM (inactive); in the assay on HT-29, 91.6 µM (inactive). The GI50 is > 100 µM (inactive) in the assay with OVCAR-3, 38.3 µM (inactive) in the assay on MCF7, > 100 µM (inactive) in the assay on NCI/ADR-RES and > 100 µM (inactive) in the assay with OVCAR-5.
For the compound `Cc1cc(S(=O)(=O)Nc2nc3ccsc3c(=O)n2N)c(S)cc1Cl`, the GI50 in the assay with CAKI-1 was > 100 µM (inactive); in the assay with A549, > 100 µM (inactive); in the assay with CCRF-CEM it was 71.9 µM (inactive); in the assay on Malme-3M it was 81.1 µM (inactive); with K562 it was 86.9 µM (inactive); with RPMI-8226 it was > 100 µM (inactive). The GI50 is 39.9 µM (inactive) in the assay on HOP-62; 53.2 µM (inactive) in the assay with NCI-H460; > 100 µM (inactive) in the assay on SF-539; 37.2 µM (inactive) in the assay on SNB-19; 56.9 µM (inactive) in the assay on SK-MEL-5; 64.3 µM (inactive) with MOLT-4. Further, the GI50 was > 100 µM (inactive) with HT-29; > 100 µM (inactive) in the assay with OVCAR-3; > 100 µM (inactive) in the assay with MCF7; 85.3 µM (inactive) in the assay with NCI/ADR-RES; 35.2 µM (inactive) in the assay on OVCAR-5.
In the case of `NC1OC(COC(=O)c2ccccc2)C(O)C(OC(=O)c2ccccc2)C1OC(=O)c1ccccc1` (configuration not stated), the GI50 in the assay on RXF 393 was 16.3 µM (inactive); in the assay with A549, 19.1 µM (inactive); in the assay on Malme-3M it was 16.7 µM (inactive); in the assay on RPMI-8226 it was > 100 µM (inactive); in the assay on HOP-62 it was 22.7 µM (inactive); in the assay with NCI-H460 it was 11.4 µM (inactive). In addition, the GI50 is 33 µM (inactive) with SNB-19; 14.4 µM (inactive) in the assay on SK-MEL-5; 14.7 µM (inactive) with MOLT-4; 17.3 µM (inactive) in the assay on HT-29; 25.2 µM (inactive) in the assay with OVCAR-3; 23.9 µM (inactive) in the assay with MCF7. The GI50 in the assay with T47D was 35.5 µM (inactive); in the assay on NCI/ADR-RES, 33.3 µM (inactive); in the assay on OVCAR-5, 24.3 µM (inactive).
